Data published in US8952024B2, “Herbicidal pyrimidone derivatives” (E I du Pont de Nemours and Company, priority 2009, dated 2015).

How the values were obtained:
Assay type in all cases: in vivo
[1] = tested on: giant foxtail (Setaria faberii); assay: Test A pre-/postemergence plant response
How it was run: (§1)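 Seeds planted in loam soil/sand blend; test chemicals in non-phytotoxic solvent mixture with surfactant applied as directed soil spray preemergence and, concurrently, postemergence to plants 2–10 cm tall at one- to two-leaf stage. Greenhouse ~10 days; visual injury vs untreated controls, 0 (no effect) to 100 (complete control).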

[2] = tested on: morningglory (Ipomoea spp.); assay: Test A pre-/postemergence plant response
How it was run: as §1

[3] = tested on: large crabgrass (Digitaria sanguinalis); assay: Test A pre-/postemergence plant response
How it was run: as §1

[4] = tested on: velvetleaf (Abutilon theophrasti); assay: Test A pre-/postemergence plant response
How it was run: as §1

[5] = tested on: pigweed (Amaranthus retroflexus); assay: Test A pre-/postemergence plant response
How it was run: as §1

[6] = tested on: wheat (Triticum aestivum); assay: Test A pre-/postemergence plant response
How it was run: as §1

[7] = tested on: barnyardgrass (Echinochloa crus-galli); assay: Test A pre-/postemergence plant response
How it was run: as §1

corn (Zea mays) = assay: Test A pre-/postemergence plant response
How it was run: as §1

[8] = tested on: windgrass (Apera spica-venti); assay: Test B postemergence plant response; settings: Postemergence
How it was run: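 Plants grown in peat/vermiculite medium were sprayed postemergence at 2–18 cm height (1- to 4-leaf stage). After 13–15 days in the greenhouse, response was rated visually against untreated controls on a 0–100 scale (0 no effect, 100 complete control).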

[9] = tested on: ducksalad (Heteranthera limosa); assay: Test B flooded paddy test; settings: for Plant response rating, Flood, Ducksalad: 250 g ai/ha, flooded paddy test, visual rating on 0 to 100 scale (0 no effect, 100 complete control) after 13 to 15 days; for Plant response rating, Ducksalad: Flood (flooded paddy test), 13 to 15 days; for Ducksalad plant response rating: Flood, 31 g ai/ha, scale 0 to 100 (0 no effect, 100 complete control)
How it was run: (§2)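 Each compound is added to standing floodwater (3 cm above soil, maintained) in pots of 2-leaf-stage plants; greenhouse exposure lasts 13–15 d before visual comparison with controls on a 0–100 control scale.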

[10] = tested on: umbrella sedge (Cyperus difformis); assay: Test B flooded paddy test; settings: for Plant response rating, Flood, Sedge, Umbrella: 250 g ai/ha, flooded paddy test, visual rating on 0 to 100 scale (0 no effect, 100 complete control) after 13 to 15 days; for Plant response rating, Sedge, Umbrella: Flood (flooded paddy test), 13 to 15 days; for Sedge, Umbrella plant response rating: Flood, 31 g ai/ha, scale 0 to 100 (0 no effect, 100 complete control)
How it was run: as §2

rice (Oryza sativa) = assay: Test B flooded paddy test; settings: for Plant response rating, Flood, Rice: 250 g ai/ha, flooded paddy test, visual rating on 0 to 100 scale (0 no effect, 100 complete control) after 13 to 15 days; for Plant response rating, Rice: Flood (flooded paddy test), 13 to 15 days; for Rice plant response rating: Flood, 31 g ai/ha, scale 0 to 100 (0 no effect, 100 complete control)
How it was run: as §2

[11] = tested on: barnyardgrass (Echinochloa crus-galli); assay: Test B flooded paddy test; settings: for Plant response rating, Flood, Barnyardgrass: 250 g ai/ha, flooded paddy test, visual rating on 0 to 100 scale (0 no effect, 100 complete control) after 13 to 15 days; for Plant response rating, Barnyardgrass: Flood (flooded paddy test), 13 to 15 days; for Barnyardgrass plant response rating: Flood, 31 g ai/ha, scale 0 to 100 (0 no effect, 100 complete control)
How it was run: as §2

[12] = Postemergence, 125 g ai/ha, 0 to 100 scale where 0 is no effect and 100 is complete control
[13] = Postemergence, 500 g ai/ha, visual injury, 0 to 100 scale (0 no effect, 100 complete control), approx. ten days
[14] = Preemergence, 125 g ai/ha, 0 to 100 scale, 0 = no effect, 100 = complete control
[15] = Preemergence, 500 g ai/ha, 0 to 100 scale, 0 = no effect, 100 = complete control
[16] = 31 g ai/ha, 0 to 100 scale (0 no effect, 100 complete control)
[17] = 250 g ai/ha, scale 0 to 100 (0 no effect, 100 complete control), 13 to 15 days
[18] = 62 g ai/ha, scale 0 to 100 (0 no effect, 100 complete control)
[19] = 62 g ai/ha, scale of 0 to 100 where 0 is no effect and 100 is complete control
[20] = 125 g ai/ha, scale 0 to 100, 0 is no effect, 100 is complete control
[21] = Postemergence, 1000 g ai/ha, 0 to 100 scale, 0 = no effect, 100 = complete control, approx. ten days
[22] = Preemergence, 1000 g ai/ha, visual injury, 0 to 100 scale (0 no effect, 100 complete control), approx. ten days

CCCCn1c(C2CC2)ncc(C(=O)C2=C(O)CCCC2=O)c1=O [Compound 193]
0: Plant response rating, Wheat [6, 14] | Plant response rating, Corn (corn (Zea mays); [14]) | Plant response rating, Corn (corn (Zea mays); [15]) | Sedge, Umbrella plant response rating [10] | Rice plant response rating (rice (Oryza sativa)) | Barnyardgrass plant response rating [11]
15: Plant response rating, Rice (rice (Oryza sativa); [19])
50: Plant response rating, Wheat [6, 15] | Plant response rating, Windgrass [8, 16] | Plant response rating, Ducksalad [9, 19] | Plant response rating, Flood, Barnyardgrass [11]
30: Plant response rating, Sedge, Umbrella [10, 19] | Plant response rating, Rice (rice (Oryza sativa); [20])
40: Plant response rating, Wheat [6, 12] | Corn plant response rating (corn (Zea mays); [13]) | Ducksalad plant response rating [9]
80: Plant response rating, Morningglory [2, 14] | Plant response rating, Barnyardgrass [7, 14]
75: Plant response rating, Windgrass [8, 17]
90: Plant response rating, Foxtail, Giant [1, 12] | Plant response rating, Foxtail, Giant [1, 14] | Plant response rating, Foxtail, Giant [1, 15] | Plant response rating, Morningglory [2, 15] | Plant response rating, Crabgrass, Large [3, 14] | Plant response rating, Barnyardgrass [7, 12] | Plant response rating, Barnyardgrass [7, 15] | Plant response rating, Flood, Sedge, Umbrella [10]
45: Plant response rating, Barnyardgrass [11, 20]
70: Wheat plant response rating [6, 13] | Plant response rating, Windgrass [8, 18] | Plant response rating, Sedge, Umbrella [10, 20]
10: Plant response rating, Corn (corn (Zea mays); [12])
100: Foxtail, Giant plant response rating [1, 13] | Plant response rating, Morningglory [2, 12] | Morningglory plant response rating [2, 13] | Plant response rating, Crabgrass, Large [3, 12] | Crabgrass, Large plant response rating [3, 13] | Plant response rating, Crabgrass, Large [3, 15] | Plant response rating, Velvetleaf [4, 12] | Velvetleaf plant response rating [4, 13] | Plant response rating, Velvetleaf [4, 14] | Plant response rating, Velvetleaf [4, 15] | Plant response rating, Pigweed [5, 12] | Pigweed plant response rating [5, 13] | Plant response rating, Pigweed [5, 14] | Plant response rating, Pigweed [5, 15] | Barnyardgrass plant response rating [7, 13] | Plant response rating, Flood, Ducksalad [9]
85: Plant response rating, Ducksalad [9, 20]
20: Plant response rating, Barnyardgrass [11, 19]
65: Plant response rating, Flood, Rice (rice (Oryza sativa))

CCCc1ncc(C(=O)C2=C(O)CCCC2=O)c(=O)n1-c1ccccc1 [Compound 217]
70: Plant response rating, Morningglory [2, 22]
85: Plant response rating, Windgrass [8, 17]
50: Plant response rating, Windgrass [8, 16] | Plant response rating, Windgrass [8, 18]
100: Plant response rating, Morningglory [2, 21] | Plant response rating, Crabgrass, Large [3, 21] | Plant response rating, Crabgrass, Large [3, 22] | Plant response rating, Velvetleaf [4, 21] | Plant response rating, Velvetleaf [4, 22] | Plant response rating, Pigweed [5, 21] | Plant response rating, Pigweed [5, 22]
90: Plant response rating, Barnyardgrass [7, 21]
20: Plant response rating, Flood, Rice (rice (Oryza sativa))
80: Plant response rating, Foxtail, Giant [1, 21] | Plant response rating, Foxtail, Giant [1, 22] | Plant response rating, Barnyardgrass [7, 22]
40: Plant response rating, Wheat [6, 21] | Plant response rating, Corn (corn (Zea mays); [21]) | Plant response rating, Flood, Ducksalad [9] | Plant response rating, Flood, Sedge, Umbrella [10] | Plant response rating, Sedge, Umbrella [10, 19]
30: Plant response rating, Wheat [6, 22]
0: Plant response rating, Corn (corn (Zea mays); [22]) | Plant response rating, Ducksalad [9, 19] | Plant response rating, Rice (rice (Oryza sativa); [19]) | Plant response rating, Flood, Barnyardgrass [11] | Plant response rating, Barnyardgrass [11, 19]

CCc1cccc(-n2c(-c3ccccc3)ncc(C(=O)C3=C(O)CCCC3=O)c2=O)c1 [Compound 220]
90: Crabgrass, Large plant response rating [3, 13] | Plant response rating, Crabgrass, Large [3, 15] | Plant response rating, Barnyardgrass [7, 12] | Barnyardgrass plant response rating [7, 13] | Plant response rating, Barnyardgrass [7, 15]
30: Corn plant response rating (corn (Zea mays); [13]) | Ducksalad plant response rating [9] | Plant response rating, Barnyardgrass [11, 20]
100: Plant response rating, Morningglory [2, 12] | Morningglory plant response rating [2, 13] | Plant response rating, Velvetleaf [4, 12] | Velvetleaf plant response rating [4, 13] | Plant response rating, Velvetleaf [4, 15] | Plant response rating, Pigweed [5, 12] | Pigweed plant response rating [5, 13] | Plant response rating, Pigweed [5, 15] | Plant response rating, Flood, Ducksalad [9]
70: Plant response rating, Morningglory [2, 15] | Plant response rating, Flood, Rice (rice (Oryza sativa))
5: Plant response rating, Windgrass [8, 16]
85: Plant response rating, Ducksalad [9, 20] | Plant response rating, Flood, Sedge, Umbrella [10]
0: Plant response rating, Foxtail, Giant [1, 14] | Plant response rating, Morningglory [2, 14] | Plant response rating, Wheat [6, 12] | Plant response rating, Wheat [6, 14] | Plant response rating, Wheat [6, 15] | Plant response rating, Corn (corn (Zea mays); [12]) | Plant response rating, Corn (corn (Zea mays); [14]) | Plant response rating, Sedge, Umbrella [10, 19] | Sedge, Umbrella plant response rating [10] | Rice plant response rating (rice (Oryza sativa)) | Plant response rating, Barnyardgrass [11, 19] | Barnyardgrass plant response rating [11]
10: Plant response rating, Barnyardgrass [7, 14] | Plant response rating, Corn (corn (Zea mays); [15])
40: Plant response rating, Foxtail, Giant [1, 15] | Plant response rating, Velvetleaf [4, 14] | Plant response rating, Windgrass [8, 18] | Plant response rating, Ducksalad [9, 19] | Plant response rating, Flood, Barnyardgrass [11]
15: Plant response rating, Rice (rice (Oryza sativa); [19])
20: Plant response rating, Foxtail, Giant [1, 12] | Plant response rating, Crabgrass, Large [3, 14] | Wheat plant response rating [6, 13] | Plant response rating, Sedge, Umbrella [10, 20]
60: Foxtail, Giant plant response rating [1, 13] | Plant response rating, Windgrass [8, 17]
80: Plant response rating, Pigweed [5, 14]
50: Plant response rating, Crabgrass, Large [3, 12] | Plant response rating, Rice (rice (Oryza sativa); [20])
